Measurements as given in PubChem BioAssay (NCI).
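Five concentrations, 48 hours, 96-well plates. Abbreviation: GI50, concentration required for 50% inhibition of growth. The concentration for full growth arrest is given as TGI.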

What was measured:
Assay in all cases: NCI tumour cell line growth inhibition, 48 h
UO-31 renal = test system: UO-31 renal
NCI-H460 lung = test system: NCI-H460 lung
RXF 393 renal = test system: RXF 393 renal
TK-10 renal = test system: TK-10 renal
M14 melanoma = test system: M14 melanoma
LOX IMVI melanoma = test system: LOX IMVI melanoma
SF-268 CNS = test system: SF-268 CNS
HOP-62 NSCLC = test system: HOP-62 NSCLC
SNB-19 CNS = test system: SNB-19 CNS
NCI/ADR-RES ovarian = test system: NCI/ADR-RES ovarian
RPMI-8226 leukemia = test system: RPMI-8226 leukemia
SF-539 CNS = test system: SF-539 CNS
NCI-H23 lung = test system: NCI-H23 lung
HOP-92 NSCLC = test system: HOP-92 NSCLC
786-0 renal = test system: 786-0 renal
MCF7 breast = test system: MCF7 breast
CCRF-CEM leukemia = test system: CCRF-CEM leukemia
ACHN renal = test system: ACHN renal
HS 578T breast = test system: HS 578T breast
SW-620 colon = test system: SW-620 colon
SK-MEL-5 melanoma = test system: SK-MEL-5 melanoma
SK-MEL-2 melanoma = test system: SK-MEL-2 melanoma
U251 CNS = test system: U251 CNS
HCT-15 colon = test system: HCT-15 colon
SK-OV-3 ovarian = test system: SK-OV-3 ovarian
MDA-MB-435 = test system: MDA-MB-435
SNB-75 CNS = test system: SNB-75 CNS
DU-145 prostate = test system: DU-145 prostate
CAKI-1 renal = test system: CAKI-1 renal
OVCAR-8 ovarian = test system: OVCAR-8 ovarian
HCC-2998 colon = test system: HCC-2998 colon
SR leukemia = test system: SR leukemia
BT-549 breast = test system: BT-549 breast
PC-3 prostate = test system: PC-3 prostate
A498 renal = test system: A498 renal
OVCAR-4 ovarian = test system: OVCAR-4 ovarian
HCT-116 colon = test system: HCT-116 colon
UACC-62 melanoma = test system: UACC-62 melanoma
A549 NSCLC = test system: A549 NSCLC
MDA-MB-231 breast = test system: MDA-MB-231 breast
K-562 leukemia = test system: K-562 leukemia
NCI-H522 lung = test system: NCI-H522 lung
T-47D breast = test system: T-47D breast
SF-295 CNS = test system: SF-295 CNS
SK-MEL-28 melanoma = test system: SK-MEL-28 melanoma
SN12C renal = test system: SN12C renal
HL-60(TB) leukemia = test system: HL-60(TB) leukemia
MOLT-4 leukemia = test system: MOLT-4 leukemia
KM12 colon = test system: KM12 colon
OVCAR-5 ovarian = test system: OVCAR-5 ovarian
HT29 colon = test system: HT29 colon
IGROV1 ovarian = test system: IGROV1 ovarian
NCI-H226 lung = test system: NCI-H226 lung
UACC-257 melanoma = test system: UACC-257 melanoma
COLO 205 colon = test system: COLO 205 colon
OVCAR-3 ovarian = test system: OVCAR-3 ovarian

N#Cc1cccc(OCc2nc(N)nc(N)c2-c2ccc(Cl)c(Cl)c2)c1
GI50 (UO-31 renal): 3.23 µM
TGI (UO-31 renal): > 100 µM
GI50 (NCI-H460 lung): 0.435 µM
TGI (NCI-H460 lung): > 100 µM
GI50 (RXF 393 renal): 2.13 µM
TGI (RXF 393 renal): > 100 µM
GI50 (TK-10 renal): 9.32 µM
TGI (TK-10 renal): > 100 µM
GI50 (M14 melanoma): 0.639 µM
TGI (M14 melanoma): > 100 µM
GI50 (LOX IMVI melanoma): 0.575 µM
TGI (LOX IMVI melanoma): > 100 µM
GI50 (SF-268 CNS): 3.05 µM
TGI (SF-268 CNS): > 100 µM
GI50 (HOP-62 NSCLC): 4.44 µM
TGI (HOP-62 NSCLC): > 100 µM
GI50 (SNB-19 CNS): 4.28 µM
TGI (SNB-19 CNS): > 100 µM
GI50 (NCI/ADR-RES ovarian): 1.19 µM
TGI (NCI/ADR-RES ovarian): > 100 µM
GI50 (RPMI-8226 leukemia): 4.65 µM
TGI (RPMI-8226 leukemia): > 100 µM
GI50 (SF-539 CNS): 1.43 µM
TGI (SF-539 CNS): 65.4 µM
GI50 (NCI-H23 lung): 2.42 µM
TGI (NCI-H23 lung): > 100 µM
GI50 (HOP-92 NSCLC): 1.82 µM
TGI (HOP-92 NSCLC): 9.06 µM
GI50 (786-0 renal): 0.513 µM
TGI (786-0 renal): > 100 µM
GI50 (MCF7 breast): 3.09 µM
TGI (MCF7 breast): > 100 µM
GI50 (CCRF-CEM leukemia): 2.03 µM
TGI (CCRF-CEM leukemia): > 100 µM
GI50 (ACHN renal): 0.896 µM
TGI (ACHN renal): > 100 µM
GI50 (HS 578T breast): 4.41 µM
TGI (HS 578T breast): > 100 µM
GI50 (SW-620 colon): 0.484 µM
TGI (SW-620 colon): > 100 µM
GI50 (SK-MEL-5 melanoma): 1.29 µM
TGI (SK-MEL-5 melanoma): > 100 µM
GI50 (SK-MEL-2 melanoma): 6.68 µM
TGI (SK-MEL-2 melanoma): > 100 µM
GI50 (U251 CNS): 0.749 µM
TGI (U251 CNS): > 100 µM
GI50 (HCT-15 colon): 0.575 µM
TGI (HCT-15 colon): > 100 µM
GI50 (SK-OV-3 ovarian): 9.56 µM
TGI (SK-OV-3 ovarian): > 100 µM
GI50 (MDA-MB-435): 0.486 µM
TGI (MDA-MB-435): > 100 µM
GI50 (SNB-75 CNS): 5.67 µM
TGI (SNB-75 CNS): > 100 µM
GI50 (DU-145 prostate): 4.08 µM
TGI (DU-145 prostate): > 100 µM
GI50 (CAKI-1 renal): 0.893 µM
TGI (CAKI-1 renal): > 100 µM
GI50 (OVCAR-8 ovarian): 0.765 µM
TGI (OVCAR-8 ovarian): > 100 µM
GI50 (HCC-2998 colon): 4.11 µM
TGI (HCC-2998 colon): > 100 µM
GI50 (SR leukemia): 2.39 µM
TGI (SR leukemia): > 100 µM
GI50 (BT-549 breast): 3.01 µM
TGI (BT-549 breast): > 100 µM
GI50 (PC-3 prostate): 0.604 µM
TGI (PC-3 prostate): > 100 µM
GI50 (A498 renal): 2.9 µM
TGI (A498 renal): > 100 µM
GI50 (OVCAR-4 ovarian): > 100 µM
TGI (OVCAR-4 ovarian): > 100 µM
GI50 (HCT-116 colon): 0.472 µM
TGI (HCT-116 colon): > 100 µM
GI50 (UACC-62 melanoma): 0.442 µM
TGI (UACC-62 melanoma): > 100 µM
GI50 (A549 NSCLC): 0.426 µM
TGI (A549 NSCLC): > 100 µM
GI50 (MDA-MB-231 breast): 6.13 µM
TGI (MDA-MB-231 breast): > 100 µM
GI50 (K-562 leukemia): 0.384 µM
TGI (K-562 leukemia): > 100 µM
GI50 (NCI-H522 lung): 5.62 µM
TGI (NCI-H522 lung): > 100 µM
GI50 (T-47D breast): 8.25 µM
TGI (T-47D breast): > 100 µM
GI50 (SF-295 CNS): 0.46 µM
TGI (SF-295 CNS): 14.3 µM
GI50 (SK-MEL-28 melanoma): 14.5 µM
TGI (SK-MEL-28 melanoma): > 100 µM
GI50 (SN12C renal): 2.23 µM
TGI (SN12C renal): > 100 µM
GI50 (HL-60(TB) leukemia): 1.55 µM
TGI (HL-60(TB) leukemia): > 100 µM
GI50 (MOLT-4 leukemia): 2.83 µM
TGI (MOLT-4 leukemia): > 100 µM
GI50 (KM12 colon): 2.96 µM
TGI (KM12 colon): 82.4 µM
GI50 (OVCAR-5 ovarian): 6.87 µM
TGI (OVCAR-5 ovarian): > 100 µM
GI50 (HT29 colon): 0.797 µM
TGI (HT29 colon): > 100 µM
GI50 (IGROV1 ovarian): 1.46 µM
TGI (IGROV1 ovarian): > 100 µM
GI50 (NCI-H226 lung): 7.44 µM
TGI (NCI-H226 lung): > 100 µM
GI50 (UACC-257 melanoma): 2.92 µM
TGI (UACC-257 melanoma): > 100 µM
GI50 (COLO 205 colon): 5.3 µM
TGI (COLO 205 colon): > 100 µM
GI50 (OVCAR-3 ovarian): 5.53 µM
TGI (OVCAR-3 ovarian): > 100 µM
